Data reported in paper PMC6364417, “Kinase inhibitor library screening identifies synergistic drug combinations effective in sensitive and resistant melanoma cells” (Journal of Experimental & Clinical Cancer Research : CR, 2019).

Legend:
Assay in all cases: Kinase inhibitor library screening, PrestoBlue cell viability, 1 or 10 μM, 72 h
[1] = tested on: 501Mel-GP cells (Dabrafenib-resistant); conditions: 72 h; for Cell viability in kinase inhibitor library screening, 501Mel GP, 1μΜ / Cell viability in kinase inhibitor library screening, 501Mel GP, 10μΜ: in %; for viability at 1 µM / viability at 10 µM: Homo sapiens; for viability at 1 µM: read-out: cell viability, 501Mel GP, 1μΜ; for viability at 10 µM: read-out: cell viability, 501Mel GP, 10μΜ; for Cell viability in kinase inhibitor library screening, 501Mel GP, 1μΜ / Cell viability in kinase inhibitor library screening, 501Mel GP, 10μΜ / cell viability (kinase inhibitor library screening): 501Mel GP
[2] = tested on: IGR37-XP cells (Vemurafenib-resistant); conditions: for Cell viability in kinase inhibitor library screening, IGR37 XP, 10μΜ / Cell viability in kinase inhibitor library screening, IGR37 XP, 1μΜ / cell viability (kinase inhibitor library screening): 72 h, IGR37 XP; for Cell viability in kinase inhibitor library screening, IGR37 XP, 1μΜ: in %; for viability at 1 µM / viability at 10 µM: Homo sapiens, IGR-37, 72 h; for viability at 1 µM: read-out: cell viability, IGR37 XP, 1μΜ; for viability at 10 µM: read-out: cell viability, IGR37 XP, 10μΜ
[3] = tested on: 501Mel-XP cells (Vemurafenib-resistant); conditions: 72 h; for Cell viability in kinase inhibitor library screening, 501Mel XP, 10μΜ / Cell viability in kinase inhibitor library screening, 501Mel XP, 1μΜ: in %; for viability at 1 µM / viability at 10 µM: Homo sapiens; for viability at 1 µM: read-out: cell viability, 501Mel XP, 1μΜ; for viability at 10 µM: read-out: cell viability, 501Mel XP, 10μΜ; for Cell viability in kinase inhibitor library screening, 501Mel XP, 10μΜ / Cell viability in kinase inhibitor library screening, 501Mel XP, 1μΜ / cell viability (kinase inhibitor library screening): 501Mel XP
[4] = tested on: A375-GP cells (Dabrafenib-resistant); conditions: for Cell viability in kinase inhibitor library screening, A375 GP, 1μΜ / Cell viability in kinase inhibitor library screening, A375 GP, 10μΜ / cell viability (kinase inhibitor library screening): 72 h, A375 GP; for viability at 1 µM / viability at 10 µM: Homo sapiens, A-375, 72 h; for viability at 1 µM: read-out: cell viability, A375 GP, 1μΜ; for viability at 10 µM: read-out: cell viability, A375 GP, 10μΜ
[5] = tested on: IGR37-GP cells (Dabrafenib-resistant); conditions: for Cell viability in kinase inhibitor library screening, IGR37 GP, 10μΜ / Cell viability in kinase inhibitor library screening, IGR37 GP, 1μΜ / cell viability (kinase inhibitor library screening): 72 h, IGR37 GP; for Cell viability in kinase inhibitor library screening, IGR37 GP, 1μΜ: in %; for viability at 1 µM / viability at 10 µM: Homo sapiens, IGR-37, 72 h; for viability at 1 µM: read-out: cell viability, IGR37 GP, 1μΜ; for viability at 10 µM: read-out: cell viability, IGR37 GP, 10μΜ
[6] = tested on: A375-XP cells (Vemurafenib-resistant); conditions: for viability at 1 µM / viability at 10 µM: Homo sapiens, A-375, 72 h; for viability at 1 µM: read-out: cell viability, A375 XP, 1μΜ; for viability at 10 µM: read-out: cell viability, A375 XP, 10μΜ
501Mel cells (parental) = conditions: 72 h; for Cell viability in kinase inhibitor library screening, 501Mel Parental, 1μΜ / Cell viability in kinase inhibitor library screening, 501Mel Parental, 10μΜ: in %; for viability at 1 µM / viability at 10 µM: Homo sapiens; for viability at 1 µM: read-out: cell viability, 501Mel Parental, 1μΜ; for viability at 10 µM: read-out: cell viability, 501Mel Parental, 10μΜ; for Cell viability in kinase inhibitor library screening, 501Mel Parental, 1μΜ / Cell viability in kinase inhibitor library screening, 501Mel Parental, 10μΜ / cell viability (kinase inhibitor library screening): 501Mel Parental
Procedure, shortened: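 PrestoBlue viability readout after 72 h exposure to each inhibitor at 1 or 10 μM, reported relative to untreated cells as % viability. Lines tested: sensitive parental plus derivatives resistant to Vemurafenib (XP) or Dabrafenib (GP), each run at least in duplicate.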

A375 cells (parental) = conditions: for Cell viability in kinase inhibitor library screening, A375 Parental, 10μΜ / Cell viability in kinase inhibitor library screening, A375 Parental, 1μΜ / cell viability (kinase inhibitor library screening): 72 h, A375 Parental; for viability at 1 µM / viability at 10 µM: Homo sapiens, A-375, 72 h; for viability at 1 µM: read-out: cell viability, A375 Parental, 1μΜ; for viability at 10 µM: read-out: cell viability, A375 Parental, 10μΜ
IGR37 cells (parental) = conditions: for Cell viability in kinase inhibitor library screening, IGR37 Parental, 1μΜ / Cell viability in kinase inhibitor library screening, IGR37 Parental, 10μΜ / cell viability (kinase inhibitor library screening): 72 h, IGR37 Parental; for Cell viability in kinase inhibitor library screening, IGR37 Parental, 1μΜ / Cell viability in kinase inhibitor library screening, IGR37 Parental, 10μΜ: in %; for viability at 1 µM / viability at 10 µM: Homo sapiens, IGR-37, 72 h; for viability at 1 µM: read-out: cell viability, IGR37 Parental, 1μΜ; for viability at 10 µM: read-out: cell viability, IGR37 Parental, 10μΜ

SMILES	Cell viability in kinase inhibitor library screening, 501Mel GP, 1μΜ ([1]; 1μΜ)	Cell viability in kinase inhibitor library screening, 501Mel GP, 10μΜ ([1]; 10μΜ)	Cell viability in kinase inhibitor library screening, IGR37 XP, 10μΜ ([2]; 10μΜ) [%]	Cell viability in kinase inhibitor library screening, IGR37 XP, 1μΜ ([2]; 1μΜ)	Cell viability in kinase inhibitor library screening, 501Mel XP, 10μΜ ([3]; 10μΜ)	Cell viability in kinase inhibitor library screening, A375 GP, 1μΜ ([4]; 1μΜ)	Cell viability in kinase inhibitor library screening, A375 GP, 10μΜ ([4]; 10μΜ)	Cell viability in kinase inhibitor library screening, IGR37 GP, 10μΜ ([5]; 10μΜ) [%]	Cell viability in kinase inhibitor library screening, IGR37 GP, 1μΜ ([5]; 1μΜ)	Cell viability in kinase inhibitor library screening, A375 XP, 1μΜ ([6]; A375 XP, 72 h)	Cell viability in kinase inhibitor library screening, A375 XP, 10μΜ ([6]; A375 XP, 10μΜ, 72 h)	Cell viability in kinase inhibitor library screening, 501Mel Parental, 1μΜ (501Mel cells (parental); 1μΜ)	Cell viability in kinase inhibitor library screening, 501Mel Parental, 10μΜ (501Mel cells (parental); 10μΜ)	Cell viability in kinase inhibitor library screening, A375 Parental, 10μΜ (A375 cells (parental); 10μΜ)	Cell viability in kinase inhibitor library screening, A375 Parental, 1μΜ (A375 cells (parental); 1μΜ)	Cell viability in kinase inhibitor library screening, IGR37 Parental, 1μΜ (IGR37 cells (parental); 1μΜ)	Cell viability in kinase inhibitor library screening, IGR37 Parental, 10μΜ (IGR37 cells (parental); 10μΜ)	Cell viability in kinase inhibitor library screening, 501Mel XP, 1μΜ ([3]; 1μΜ)	further results
FC(F)c1nc2ccccc2n1-c1nc(N2CCOCC2)nc(N2CCOCC2)n1 [ZSTK474]	45.9	9.4	4.7	71.7	2.5	69.9	13.0	8.8	80.3	67.6	15.9	66.9	8.9	16.3	76.3	77.8	23.8		
CC(C)(O)CC(=O)NCCn1ccc2ncnc(Nc3ccc(Oc4cccc(C(F)(F)F)c4)c(Cl)c3)c21 [TAK-285]																			viability at 1 µM [1]: 104%; viability at 10 µM [1]: 87.8%; viability at 1 µM [2]: 87.2%; viability at 10 µM [2]: 48.4%; viability at 1 µM [3]: 94.8%; viability at 10 µM [3]: 83.2%; viability at 1 µM [4]: 103%; viability at 10 µM [4]: 83.1%; viability at 1 µM [5]: 90.8%; viability at 10 µM [5]: 86%; viability at 1 µM [6]: 108%; viability at 10 µM [6]: 87.7%; viability at 1 µM (501Mel cells (parental)): 101%; viability at 10 µM (501Mel cells (parental)): 99%; viability at 1 µM (A375 cells (parental)): 102%; viability at 10 µM (A375 cells (parental)): 90.5%; viability at 1 µM (IGR37 cells (parental)): 108%; viability at 10 µM (IGR37 cells (parental)): 99.7%
O=C(NCCCNc1nc(Nc2cccc(NC(=O)N3CCCC3)c2)ncc1I)c1cccs1 [BX-795]	97.1	64.9	7.6	93.9	39.9	86.6	43.6	15.1	85.8	93.4	48.3	92.8	82.7	38.1	87.7	97.9	56.4	89.4	
C[C@H](NC(=O)/C(C#N)=C/c1cccc(Br)n1)c1ccccc1 [WP1066]																			viability at 1 µM [1]: 102%; viability at 10 µM [1]: 1.2%; viability at 1 µM [2]: 92.4%; viability at 10 µM [2]: 3.2%; viability at 1 µM [3]: 91.3%; viability at 10 µM [3]: -0.0613%; viability at 1 µM [4]: 92.5%; viability at 10 µM [4]: 4.5%; viability at 1 µM [5]: 92.6%; viability at 10 µM [5]: 5.1%; viability at 1 µM [6]: 103%; viability at 10 µM [6]: 6.7%; viability at 1 µM (501Mel cells (parental)): 96.9%; viability at 10 µM (501Mel cells (parental)): 0.369%; viability at 1 µM (A375 cells (parental)): 106%; viability at 10 µM (A375 cells (parental)): 5.4%; viability at 1 µM (IGR37 cells (parental)): 110%; viability at 10 µM (IGR37 cells (parental)): 0.9%
COc1ccc(COc2cc3oc(=O)c4cc(C(C)O)ccc4c3cc2OC)cc1 (centres unmarked) [Palomid 529]	90.2	80.5	46.5	98.2	30.6	94.7	88.6	75.1	87.7	100.3	90.5	87.4	80.1	83.6		102.9	103.1	95.5	
O=C1NC(=O)/C(=C/c2ccc3nccc(-c4ccncc4)c3c2)S1 [GSK1059615]	45.2	1.5	2.2	58.7	0.262	59.6	4.2	6.4	75.2	54.8	3.7	65.3	1.4	4.4	62.0	82.5	4.7	43.3	
Cc1cc(CN2CCN(c3c(Br)cnc4nc(-c5ccc(N6CCN(C)CC6)cc5)[nH]c34)CC2)no1 [CCT137690]																			cell viability (kinase inhibitor library screening) ([1]; 1μΜ): 95.4%; cell viability (kinase inhibitor library screening) ([1]; 10μΜ): -0.454%; cell viability (kinase inhibitor library screening) ([2]; 1μΜ): 93.1%; cell viability (kinase inhibitor library screening) ([2]; 10μΜ): 0.741%; cell viability (kinase inhibitor library screening) ([3]; 1μΜ): 76.9%; cell viability (kinase inhibitor library screening) ([3]; 10μΜ): -0.565%; cell viability (kinase inhibitor library screening) ([4]; 1μΜ): 56.6%; cell viability (kinase inhibitor library screening) ([4]; 10μΜ): 0.6%; cell viability (kinase inhibitor library screening) ([5]; 1μΜ): 88.6%; cell viability (kinase inhibitor library screening) ([5]; 10μΜ): 1.7%; cell viability (kinase inhibitor library screening) ([6]; A375 XP, 10μΜ, 72 h): 0.9%; cell viability (kinase inhibitor library screening) (501Mel cells (parental); 1μΜ): 87.2%; cell viability (kinase inhibitor library screening) (501Mel cells (parental); 10μΜ): 0.283%; cell viability (kinase inhibitor library screening) (A375 cells (parental); 10μΜ): 1.0%; cell viability (kinase inhibitor library screening) (A375 cells (parental); 1μΜ): 56.7%; cell viability (kinase inhibitor library screening) (IGR37 cells (parental); 1μΜ): 91.0%; cell viability (kinase inhibitor library screening) (IGR37 cells (parental); 10μΜ): 0.571%
O=c1cc(N2CCOCC2)oc2c(-c3ccccc3)cccc12 [LY294002]	104.8	77.9	46.1	100.0	68.2	104.5	79.2	72.8	100.0	104.6	90.9		86.8	80.4	105.7	106.7	84.5	91.4	
